Assays:
[1] = Photostability at high dilution in ethanol solution under Hg lamp with Pyrex filter; type: physicochemical
Experimental: A 25 ml reaction flask equipped with a distillation bridge and connected to vacuum was charged with 2 g (6.3 mmol) of cyano-(2,3-dihydro-5,6-dimethoxy-3,3-dimethyl-1H-inden-1-ylidene) acetic acid ethyl ester (see Example 1), 1.37 g (6.6 mmol) of 3-(1,1,3,3,3-pentamethy-disiloxanyl)-propanol (see above) and 3 mg of tetraisopropyl ortho titanate. The mixture was heated to 115° C. to 120° C. at a vacuum of 360 mbar with stirring for 11 hours.

[2] = Solubility in cosmetic solvents (CÉTIOL LC, CRODAMOL DA); conditions: for solubility in cosmetic solvents (in words): cosmetic solvents such as CÉTIOL LC and CRODAMOL DA; for Solubility in CRODAMOL DA: solvent CRODAMOL DA (Diisopropyl adipate); for Solubility in CÉTIOL LC: solvent CÉTIOL LC (Coco-caprylate/caprate)

SMILES | photostability [1] | solubility in cosmetic solvents (in words) [2] | Solubility in CRODAMOL DA [2] | Solubility in CÉTIOL LC [2] | Solubility in CÉTIOL LC ([2]; listed as drawing 33) | Solubility in CÉTIOL LC ([2]; listed as drawing 30)
COc1cc2c(cc1OC)C(C)(C)C/C2=C(/C#N)C(=O)OCCC[Si](C)(C)O[Si](C)(C)C [Example 2, Cyano-(2,3-dihydro-5,6-dimethoxy-3,3-dimethyl-1H-inden-1-ylidene) acetic Acid-3-(1,1,3,3,3-pentamethy-disiloxanyl)-propyl Ester] | excellent photostability | excellent solubility | miscible | – | – | –
C=C(COc1cc2c(cc1OC)/C(=C(\C#N)C(=O)OCC)CC2(C)C)[Si](C)(O[Si](C)(C)C)O[Si](C)(C)C [Example 11] | same photostability qualities as described in Example 2b | – | miscible | – | – | –
COc1cc2c(cc1OC)C(C)(C)C/C2=C(/C#N)C(=O)OCC(C)C[Si](C)(C)O[Si](C)(C)C (centres unmarked) [Example 3, Cyano-(2,3-dihydro-5,6-dimethoxy-3,3-dimethyl-1H-inden-1-ylidene) acetic Acid-3-(1,1,3,3,3-pentamethy-disiloxanyl)-2-methyl-propyl Ester] | same solubility and photostability qualities as described in Example 2b | same solubility and photostability qualities as described in Example 2b | miscible | – | – | –
COc1ccc2c(c1)CC(C)/C2=C(/C#N)C(=O)OCCCC[Si](C)(C)O[Si](C)(C)C (centres unmarked) [Example 7, Cyano-(2,3-dihydro-5-methoxy-2-methyl-1H-inden-1-ylidene)acetic Acid-4-(1,1,3,3,3-pentamethy-disiloxanyl)-butyl Ester] | same solubility and photostability qualities as described in Example 2b | same solubility and photostability qualities as described in Example 2b | miscible | – | – | –
CC[Si](CC)(CC)CCOCCCCOC(=O)/C(C#N)=C1\CC(C)(C)c2cc(OC)c(OC)cc21 [Example 5, Cyano-(2,3-dihydro-5,6-dimethoxy-3,3-dimethyl-1H-inden-1-ylidene) acetic Acid-4-(2-triethylsilanyl-ethoxy)-butyl Ester] | same solubility and photostability qualities as described in Example 2b | same solubility and photostability qualities as described in Example 2b | miscible | – | – | –
CCOC(=O)/C(C#N)=C1\CC(C)(C)c2cc(OC)ccc21 [drawing 31, reference compound] | – | – | 0.60% | 0.10% | – | –
CC[Si](/C=C/CCOC(=O)/C(C#N)=C1\CC(C)(C)c2cc(OC)c(OC)cc21)(CC)CC [Example 6, Cyano-(2,3-dihydro-5,6-dimethoxy-3,3-dimethyl-1H-inden-1-ylidene) acetic Acid-4-triethylsilanyl-but-3-enyl Ester] | same solubility and photostability qualities as described in Example 2b | same solubility and photostability qualities as described in Example 2b | miscible | – | – | –
CCOC(=O)/C(C#N)=C1\CC(C)(C)c2cc(OC)ccc21 [drawing 32, reference compound] | – | – | – | 0.09% | – | –
C=C(CNC(=O)/C(C#N)=C1\CC(C)(C)c2cc(OC)c(OC)cc21)[Si](C)(O[Si](C)(C)C)O[Si](C)(C)C [Example 8, Cyano-(2,3-dihydro-5,6-dimethoxy-3,3-dimethyl-1H-inden-1-ylidene)acetic Acid-2-(1,3,3,3-tetramethyl-1-[(trimethylsilyl)-oxy]-disiloxanyl)-prop-2-enyl Amide] | same photostability qualities as described in Example 2b | – | miscible | – | – | –
C#CCNC(=O)/C(C#N)=C1\CC(C)(C)c2cc(OC)c(OC)cc21 [Example 8b, 2-Cyano-2-(5,6-dimethoxy-3,3-dimethyl-indan-1-ylidene)-N-prop-2-ynyl-acetamide, reference compound] | – | – | – | 0.04% | 0.04% | –
COc1cc2c(cc1OC)C(C)(C)C/C2=C(/C#N)C(=O)OCCCC[Si](C)(O[Si](C)(C)C)O[Si](C)(C)C [Example 4, Cyano-(2,3-dihydro-5,6-dimethoxy-3,3-dimethyl-1H-inden-1-ylidene) acetic Acid-4-(1,3,3,3-tetramethyl-1-[(trimethylsilyl)-oxy]-disiloxanyl)-butyl Ester] | excellent photostability | – | miscible | – | – | –
CCOC(=O)/C(C#N)=C1\CC(C)(C)c2cc(OC)c(OC)cc21 [Example 1, Cyano-(2,3-dihydro-5,6-dimethoxy-3,3-dimethyl-1H-inden-1-ylidene)acetic Acid Ethyl Ester, reference compound] | – | – | 1.71% | 0.35% | – | 0.35%

— patent publication US6416746B1, “Indanylidene compounds” (Roche Vitamins Inc., priority 1998, dated 2002)
